According to US6376497B1, “Antifungal azole derivatives having a fluorinated vinyl group and process for preparing same” (Korea Research Institute of Chemical Technology, priority 1999, dated 2002):
Values after ≈ are worked out from the molar mass of the structure shown.

Tests used:
Assay in all cases: In vitro antifungal activity, microbroth dilution MIC
Assay type in all cases: cell-based
[1] = tested on: Aspergillus furnigatus B. 19119; details: A furnigatus B. 19119, RPMI-1640, 35° C., 4 to 48 hours
Method in brief: (§1)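 Broth microdilution adapted from NCCLS M27, in RPMI-1640 with 0.165 M MOPS, pH 7.0. Yeast or mould inoculum at 2×10^3 CFU/ml was mixed 1:1 with DMSO-derived compound solutions (200 to 0.10 μg/ml before mixing) and incubated at 35 °C for 4 to 48 h. MIC was the concentration showing no growth.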

[2] = tested on: Aspergillus niger A. 16404; details: A. niger A. 16404, RPMI-1640, 35° C., 4 to 48 hours
Method in brief: as §1

[3] = tested on: Candida albicans A. 10231; details: C. albicans A. 10231, RPMI-1640, 35° C., 4 to 48 hours
Method in brief: as §1

Candida albicans C1-2 = details: C. albicans C1-2, RPMI-1640, 35° C., 4 to 48 hours
Method in brief: as §1

[4] = tested on: Candida albicans IFO. 1385; details: C. albicans IFO. 1385, RPMI-1640, 35° C., 4 to 48 hours
Method in brief: as §1

Candida krusei K. 11655 = details: C. krusei K. 11655, RPMI-1640, 35° C., 4 to 48 hours
Method in brief: as §1

[5] = tested on: Candida parapsitosis A. 7330; details: C. parapsitosis A. 7330, RPMI-1640, 35° C., 4 to 48 hours
Method in brief: as §1

[6] = tested on: Candida pseudotropicalis K. 11658; details: C. pseudotropicalis K. 11658, RPMI-1640, 35° C., 4 to 48 hours
Method in brief: as §1

[7] = tested on: Candida tropicalis A. 13803; details: C. tropicalis A. 13803, RPMI-1640, 35° C., 4 to 48 hours
Method in brief: as §1

[8] = tested on: Cryptococcus neoformans A. 34144; details: Cry. neoformans A. 34144, RPMI-1640, 35° C., 4 to 48 hours
Method in brief: as §1

[9] = tested on: Cryptococcus neoformans B. 42419; details: Cry. neoformans B. 42419, RPMI-1640, 35° C., 4 to 48 hours
Method in brief: as §1

[10] = tested on: Cryptococcus neoformans IFM. 40092; details: Cry. neoformans IFM. 40092, RPMI-1640, 35° C., 4 to 48 hours
Method in brief: as §1

[11] = tested on: Torulopsis glabrata B. 16205; details: T. glabrata B. 16205, RPMI-1640, 35° C., 4 to 48 hours
Method in brief: as §1

[12] = tested on: Trichophyton mentagrophytes A. 9129; details: T. mentagrophytes A. 9129, RPMI-1640, 35° C., 4 to 48 hours
Method in brief: as §1

[13] = tested on: Trichophyton mentagrophytes B. 32663; details: T. mentagrophytes B. 32663, RPMI-1640, 35° C., 4 to 48 hours
Method in brief: as §1

Compound	Minimal inhibitory concentration (MIC) [1]	Minimal inhibitory concentration (MIC) [2]	Minimal inhibitory concentration (MIC) [3]	Minimal inhibitory concentration (MIC) (Candida albicans C1-2)	Minimal inhibitory concentration (MIC) [4]	Minimal inhibitory concentration (MIC) (Candida krusei K. 11655)	Minimal inhibitory concentration (MIC) [5]	Minimal inhibitory concentration (MIC) [6]	Minimal inhibitory concentration (MIC) [7]	Minimal inhibitory concentration (MIC) [8]	Minimal inhibitory concentration (MIC) [9]	Minimal inhibitory concentration (MIC) [10]	Minimal inhibitory concentration (MIC) [11]	Minimal inhibitory concentration (MIC) [12]	Minimal inhibitory concentration (MIC) [13]
Cc1cc(C)cc(C=C(F)OCC2COC(Cn3ccnc3)(c3ccc(Cl)cc3Cl)O2)c1 (stereo not drawn) [Ex. 6]	6.25 µg/mL (≈ 13.1 µM)	6.25 µg/mL (≈ 13.1 µM)	6.25 µg/mL (≈ 13.1 µM)	12.5 µg/mL (≈ 26.2 µM)	0.78 µg/mL (≈ 1.63 µM)	12.5 µg/mL (≈ 26.2 µM)	12.5 µg/mL (≈ 26.2 µM)	12.5 µg/mL (≈ 26.2 µM)	12.5 µg/mL (≈ 26.2 µM)	3.13 µg/mL (≈ 6.56 µM)	3.13 µg/mL (≈ 6.56 µM)	1.56 µg/mL (≈ 3.27 µM)	6.25 µg/mL (≈ 13.1 µM)	3.13 µg/mL (≈ 6.56 µM)	3.13 µg/mL (≈ 6.56 µM)
Cc1cc(C)c(C=C(F)OCC2COC(Cn3ccnc3)(c3ccc(Cl)cc3Cl)O2)cc1C (stereo not drawn) [Ex. 7]	6.25 µg/mL (≈ 12.7 µM)	12.5 µg/mL (≈ 25.4 µM)	12.5 µg/mL (≈ 25.4 µM)	12.5 µg/mL (≈ 25.4 µM)	1.56 µg/mL (≈ 3.17 µM)	12.5 µg/mL (≈ 25.4 µM)	12.5 µg/mL (≈ 25.4 µM)	12.5 µg/mL (≈ 25.4 µM)	25.0 µg/mL (≈ 50.9 µM)	1.56 µg/mL (≈ 3.17 µM)	1.56 µg/mL (≈ 3.17 µM)	0.78 µg/mL (≈ 1.59 µM)	6.25 µg/mL (≈ 12.7 µM)	6.25 µg/mL (≈ 12.7 µM)	1.56 µg/mL (≈ 3.17 µM)
COc1cccc(C=C(F)OCC2COC(Cn3ccnc3)(c3ccc(Cl)cc3Cl)O2)c1 (stereo not drawn) [Ex. 8]	6.25 µg/mL (≈ 13 µM)	6.25 µg/mL (≈ 13 µM)	12.5 µg/mL (≈ 26.1 µM)	25.0 µg/mL (≈ 52.2 µM)	1.56 µg/mL (≈ 3.25 µM)	6.25 µg/mL (≈ 13 µM)	12.5 µg/mL (≈ 26.1 µM)	12.5 µg/mL (≈ 26.1 µM)	25.0 µg/mL (≈ 52.2 µM)	3.13 µg/mL (≈ 6.53 µM)	1.56 µg/mL (≈ 3.25 µM)	0.78 µg/mL (≈ 1.63 µM)	6.25 µg/mL (≈ 13 µM)	3.13 µg/mL (≈ 6.53 µM)	1.56 µg/mL (≈ 3.25 µM)
COc1ccc(C=C(F)OCC2COC(Cn3ccnc3)(c3ccc(Cl)cc3Cl)O2)cc1 (stereo not drawn) [Ex. 9]	6.25 µg/mL (≈ 13 µM)	6.25 µg/mL (≈ 13 µM)	12.5 µg/mL (≈ 26.1 µM)	25.0 µg/mL (≈ 52.2 µM)	1.56 µg/mL (≈ 3.25 µM)	6.25 µg/mL (≈ 13 µM)	12.5 µg/mL (≈ 26.1 µM)	6.25 µg/mL (≈ 13 µM)	25.0 µg/mL (≈ 52.2 µM)	3.13 µg/mL (≈ 6.53 µM)	1.56 µg/mL (≈ 3.25 µM)	0.78 µg/mL (≈ 1.63 µM)	6.25 µg/mL (≈ 13 µM)	3.13 µg/mL (≈ 6.53 µM)	1.56 µg/mL (≈ 3.25 µM)
CCOc1ccc(C=C(F)OCC2COC(Cn3ccnc3)(c3ccc(Cl)cc3Cl)O2)cc1 (stereo not drawn) [Ex. 10]	12.5 µg/mL (≈ 25.3 µM)	50.0 µg/mL (≈ 101 µM)	25.0 µg/mL (≈ 50.7 µM)	12.5 µg/mL (≈ 25.3 µM)	1.56 µg/mL (≈ 3.16 µM)	25.0 µg/mL (≈ 50.7 µM)	12.5 µg/mL (≈ 25.3 µM)	6.25 µg/mL (≈ 12.7 µM)	50.0 µg/mL (≈ 101 µM)	1.56 µg/mL (≈ 3.16 µM)	1.56 µg/mL (≈ 3.16 µM)	≦0.10 μg/ml	12.5 µg/mL (≈ 25.3 µM)	6.25 µg/mL (≈ 12.7 µM)	1.56 µg/mL (≈ 3.16 µM)
CC(C)Oc1cccc(C=C(F)OCC2COC(Cn3ccnc3)(c3ccc(Cl)cc3Cl)O2)c1 (stereo not drawn) [Ex. 11]	12.5 µg/mL (≈ 24.6 µM)	50.0 µg/mL (≈ 98.5 µM)	25.0 µg/mL (≈ 49.3 µM)	25.0 µg/mL (≈ 49.3 µM)	1.56 µg/mL (≈ 3.07 µM)	12.5 µg/mL (≈ 24.6 µM)	6.25 µg/mL (≈ 12.3 µM)	3.13 µg/mL (≈ 6.17 µM)	50.0 µg/mL (≈ 98.5 µM)	1.56 µg/mL (≈ 3.07 µM)	1.56 µg/mL (≈ 3.07 µM)	0.39 µg/mL (≈ 0.769 µM)	12.5 µg/mL (≈ 24.6 µM)	12.5 µg/mL (≈ 24.6 µM)	1.56 µg/mL (≈ 3.07 µM)
FC(=Cc1ccc2c(c1)OCO2)OCC1COC(Cn2ccnc2)(c2ccc(Cl)cc2Cl)O1 (stereo not drawn) [Ex. 12]	1.56 µg/mL (≈ 3.16 µM)	3.13 µg/mL (≈ 6.34 µM)	12.5 µg/mL (≈ 25.3 µM)	25.0 µg/mL (≈ 50.7 µM)	1.56 µg/mL (≈ 3.16 µM)	6.25 µg/mL (≈ 12.7 µM)	6.25 µg/mL (≈ 12.7 µM)	3.13 µg/mL (≈ 6.34 µM)	50.0 µg/mL (≈ 101 µM)	1.56 µg/mL (≈ 3.16 µM)	0.78 µg/mL (≈ 1.58 µM)	0.39 µg/mL (≈ 0.791 µM)	6.25 µg/mL (≈ 12.7 µM)	0.78 µg/mL (≈ 1.58 µM)	0.78 µg/mL (≈ 1.58 µM)
FC(=Cc1cccc(Cl)c1)OCC1COC(Cn2ccnc2)(c2ccc(Cl)cc2Cl)O1 (stereo not drawn) [Ex. 13]	1.56 µg/mL (≈ 3.22 µM)	3.13 µg/mL (≈ 6.47 µM)	6.25 µg/mL (≈ 12.9 µM)	3.13 µg/mL (≈ 6.47 µM)	0.39 µg/mL (≈ 0.806 µM)	25.0 µg/mL (≈ 51.7 µM)	50.0 µg/mL (≈ 103 µM)	1.56 µg/mL (≈ 3.22 µM)	50.0 µg/mL (≈ 103 µM)	0.39 µg/mL (≈ 0.806 µM)	0.39 µg/mL (≈ 0.806 µM)	≦0.10 μg/ml	6.25 µg/mL (≈ 12.9 µM)	0.78 µg/mL (≈ 1.61 µM)	≦0.10 μg/ml
FC(=Cc1ccc(Cl)cc1)OCC1COC(Cn2ccnc2)(c2ccc(Cl)cc2Cl)O1 (stereo not drawn) [Ex. 14]	6.25 µg/mL (≈ 12.9 µM)	6.25 µg/mL (≈ 12.9 µM)	6.25 µg/mL (≈ 12.9 µM)	12.5 µg/mL (≈ 25.8 µM)	0.39 µg/mL (≈ 0.806 µM)	6.25 µg/mL (≈ 12.9 µM)	12.5 µg/mL (≈ 25.8 µM)	3.13 µg/mL (≈ 6.47 µM)	12.5 µg/mL (≈ 25.8 µM)	0.78 µg/mL (≈ 1.61 µM)	0.78 µg/mL (≈ 1.61 µM)	0.39 µg/mL (≈ 0.806 µM)	6.25 µg/mL (≈ 12.9 µM)	1.56 µg/mL (≈ 3.22 µM)	0.78 µg/mL (≈ 1.61 µM)
FC(=Cc1cccc(F)c1)OCC1COC(Cn2ccnc2)(c2ccc(Cl)cc2Cl)O1 (stereo not drawn) [Ex. 15]	0.78 µg/mL (≈ 1.67 µM)	1.56 µg/mL (≈ 3.34 µM)	6.25 µg/mL (≈ 13.4 µM)	3.13 µg/mL (≈ 6.7 µM)	≦0.10 μg/ml	6.25 µg/mL (≈ 13.4 µM)	6.26 µg/mL (≈ 13.4 µM)	3.13 µg/mL (≈ 6.7 µM)	25.0 µg/mL (≈ 53.5 µM)	0.20 µg/mL (≈ 0.428 µM)	0.20 µg/mL (≈ 0.428 µM)	≦0.10 μg/ml	3.13 µg/mL (≈ 6.7 µM)	0.39 µg/mL (≈ 0.835 µM)	≦0.10 μg/ml
